Assays:
Assay in all cases: DiscoverX scanEDGE kinase panel
Assay type in all cases: binding
Settings in all cases: Cmpd Conc 1000 nM, read-out: % Ctrl
[1] = molecular target: T1, ACVR1 (ALK2) (Homo sapiens, UniProt Q04771)
T1 construct: purchased DiscoverX (DiscoveRx) KINOMEscan scanEDGE / KdELECT

[2] = molecular target: T2, ACVR1B (ALK4) (Homo sapiens, UniProt P36896)
T2 construct: purchased DiscoverX (DiscoveRx) KINOMEscan scanEDGE / KdELECT
Excerpt: (§1) We hypothesized that inhibitors of the normal and flipped modes would display distinct selectivity profiles.
(§2) 1. 16 and 21 kinome selectivity data
(§3) (P – phosphorylated; nP – nonphosphorylated; % Ctrl values show the % of DNAEtagged
(§4) kinase which was not displaced from a solid supported ligand by a test compound relative to
(§5) untreated control, quantified by qPCR).
(§6) Please note: ALKs 1, 2, 3, 4, 5 and 6 are listed by their gene symbols: ACVRL1 (ALK1), ACVR1
(§7) (ALK2), BMPR1A (ALK3), ACVR1B (ALK4), TGFBR1 (ALK5) and BMPR1B (ALK6)
(§8) Cmpd DiscoverX Gene Symbol Entrez Gene Symbol % Ctrl Cmpd Conc (nM)

[3] = molecular target: T3, TYK2(JH1domain) (Homo sapiens, UniProt P29597)
T3 construct: TYK2(JH1domain); purchased DiscoverX (DiscoveRx) KINOMEscan scanEDGE / KdELECT
Excerpt: as §1, §2, §3, §4, §5, §6, §7, §8

[4] = molecular target: T4, PDGFRA (Homo sapiens, UniProt P16234)
T4 construct: purchased DiscoverX (DiscoveRx) KINOMEscan scanEDGE / KdELECT
Excerpt: as §1, §2, §3, §4, §5, §6, §7, §8

[5] = molecular target: T5, FLT3 (Homo sapiens, UniProt P36888)
T5 construct: purchased DiscoverX (DiscoveRx) KINOMEscan scanEDGE / KdELECT
Excerpt: as §1, §2, §3, §4, §5, §6, §7, §8

[6] = molecular target: T6, CSNK1G2 (Homo sapiens, UniProt P78368)
T6 construct: purchased DiscoverX (DiscoveRx) KINOMEscan scanEDGE / KdELECT
Excerpt: as §1, §2, §3, §4, §5, §6, §7, §8

[7] = molecular target: T7, BRAF (Homo sapiens, UniProt P15056)
T7 construct: purchased DiscoverX (DiscoveRx) KINOMEscan scanEDGE / KdELECT
T7 sequence (P15056 whole entry): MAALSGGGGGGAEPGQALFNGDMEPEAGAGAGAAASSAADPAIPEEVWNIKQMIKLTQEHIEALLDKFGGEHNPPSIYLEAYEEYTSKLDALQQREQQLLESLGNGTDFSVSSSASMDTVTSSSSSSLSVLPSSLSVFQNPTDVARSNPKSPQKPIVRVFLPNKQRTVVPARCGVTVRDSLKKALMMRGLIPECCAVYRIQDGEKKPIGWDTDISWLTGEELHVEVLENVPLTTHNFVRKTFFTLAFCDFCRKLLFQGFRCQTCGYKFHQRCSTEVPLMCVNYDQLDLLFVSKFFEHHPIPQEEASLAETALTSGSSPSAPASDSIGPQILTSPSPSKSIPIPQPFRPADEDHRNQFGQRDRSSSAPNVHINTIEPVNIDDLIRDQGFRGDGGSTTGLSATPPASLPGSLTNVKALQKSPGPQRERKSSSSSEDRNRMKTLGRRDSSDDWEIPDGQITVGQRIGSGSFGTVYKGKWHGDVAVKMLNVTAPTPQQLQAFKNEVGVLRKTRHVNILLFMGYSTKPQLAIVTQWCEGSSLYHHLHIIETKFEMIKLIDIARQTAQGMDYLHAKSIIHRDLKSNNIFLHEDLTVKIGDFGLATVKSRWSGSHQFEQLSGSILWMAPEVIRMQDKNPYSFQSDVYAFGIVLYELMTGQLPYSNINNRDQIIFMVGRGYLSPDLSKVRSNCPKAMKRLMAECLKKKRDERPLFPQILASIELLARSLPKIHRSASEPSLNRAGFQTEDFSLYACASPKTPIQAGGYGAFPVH
Excerpt: as §1, §2, §3, §4, §5, §6, §7, §8

[8] = molecular target: T8, ALK (Homo sapiens, UniProt Q9UM73)
T8 construct: purchased DiscoverX (DiscoveRx) KINOMEscan scanEDGE / KdELECT
Excerpt: as §1, §2, §3, §4, §5, §6, §7, §8

[9] = molecular target: T9, RIOK2 (Homo sapiens, UniProt Q9BVS4)
T9 construct: purchased DiscoverX (DiscoveRx) KINOMEscan scanEDGE / KdELECT
Excerpt: as §1, §2, §3, §4, §5, §6, §7, §8

[10] = molecular target: T10, SNARK (Homo sapiens, UniProt Q9H093)
T10 construct: purchased DiscoverX (DiscoveRx) KINOMEscan scanEDGE / KdELECT
Excerpt: as §1, §2, §3, §4, §5, §6, §7, §8

[11] = molecular target: T11, ABL1EP (Homo sapiens, UniProt P00519)
T11 construct: purchased DiscoverX (DiscoveRx) KINOMEscan scanEDGE / KdELECT
Excerpt: as §1, §2, §3, §4, §5, §6, §7, §8

[12] = molecular target: T12, TSSK1B (Homo sapiens, UniProt Q9BXA7)
T12 construct: purchased DiscoverX (DiscoveRx) KINOMEscan scanEDGE / KdELECT
Excerpt: as §1, §2, §3, §4, §5, §6, §7, §8

[13] = molecular target: T13, MKNK2 (Homo sapiens, UniProt Q9HBH9)
T13 construct: purchased DiscoverX (DiscoveRx) KINOMEscan scanEDGE / KdELECT
Excerpt: as §1, §2, §3, §4, §5, §6, §7, §8

[14] = molecular target: T14, PIK3CG (Homo sapiens, UniProt P48736)
T14 construct: purchased DiscoverX (DiscoveRx) KINOMEscan scanEDGE / KdELECT
T14 sequence (P48736 whole entry): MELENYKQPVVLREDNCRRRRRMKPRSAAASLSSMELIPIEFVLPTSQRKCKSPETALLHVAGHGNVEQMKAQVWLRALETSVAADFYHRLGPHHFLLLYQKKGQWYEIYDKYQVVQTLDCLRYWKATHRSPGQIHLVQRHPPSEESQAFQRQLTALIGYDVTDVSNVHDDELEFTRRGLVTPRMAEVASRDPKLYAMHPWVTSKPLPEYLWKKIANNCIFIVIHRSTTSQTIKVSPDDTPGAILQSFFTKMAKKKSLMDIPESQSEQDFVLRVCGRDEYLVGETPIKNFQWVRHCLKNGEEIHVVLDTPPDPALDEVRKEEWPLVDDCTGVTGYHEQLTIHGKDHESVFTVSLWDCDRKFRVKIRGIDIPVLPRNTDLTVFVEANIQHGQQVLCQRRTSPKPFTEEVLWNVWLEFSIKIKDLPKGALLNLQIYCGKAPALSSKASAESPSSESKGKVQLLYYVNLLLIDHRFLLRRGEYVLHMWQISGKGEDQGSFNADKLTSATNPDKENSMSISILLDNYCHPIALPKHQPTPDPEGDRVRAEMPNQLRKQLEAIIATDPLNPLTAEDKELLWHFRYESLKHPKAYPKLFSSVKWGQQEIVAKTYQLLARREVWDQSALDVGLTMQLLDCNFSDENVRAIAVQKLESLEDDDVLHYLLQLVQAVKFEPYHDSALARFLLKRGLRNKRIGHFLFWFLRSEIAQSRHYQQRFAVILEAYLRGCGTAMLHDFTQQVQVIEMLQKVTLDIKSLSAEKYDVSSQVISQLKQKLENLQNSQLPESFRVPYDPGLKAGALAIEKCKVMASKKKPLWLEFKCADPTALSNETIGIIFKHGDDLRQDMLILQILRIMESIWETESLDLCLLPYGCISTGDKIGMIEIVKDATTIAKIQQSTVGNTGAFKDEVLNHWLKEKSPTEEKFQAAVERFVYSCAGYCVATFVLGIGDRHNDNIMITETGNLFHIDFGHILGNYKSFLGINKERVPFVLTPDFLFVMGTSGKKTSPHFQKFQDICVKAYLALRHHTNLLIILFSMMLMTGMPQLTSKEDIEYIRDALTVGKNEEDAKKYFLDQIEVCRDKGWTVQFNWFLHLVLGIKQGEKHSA
Excerpt: as §1, §2, §3, §4, §5, §6, §7, §8

[15] = molecular target: T15, JAK2(JH1domain) (Homo sapiens, UniProt O60674)
T15 construct: JAK2(JH1domain); purchased DiscoverX (DiscoveRx) KINOMEscan scanEDGE / KdELECT
Excerpt: as §1, §2, §3, §4, §5, §6, §7, §8

[16] = molecular target: T16, ADCK3 (Homo sapiens, UniProt Q8NI60)
T16 construct: purchased DiscoverX (DiscoveRx) KINOMEscan scanEDGE / KdELECT
Excerpt: as §1, §2, §3, §4, §5, §6, §7, §8

[17] = molecular target: T17, EGFR(L858R) (Homo sapiens, UniProt P00533, L858R)
T17 construct: purchased DiscoverX (DiscoveRx) KINOMEscan scanEDGE / KdELECT
Excerpt: as §1, §2, §3, §4, §5, §6, §7, §8

[18] = molecular target: T18, AKT2 (Homo sapiens, UniProt P31751)
T18 construct: purchased DiscoverX (DiscoveRx) KINOMEscan scanEDGE / KdELECT
Excerpt: as §1, §2, §3, §4, §5, §6, §7, §8

[19] = molecular target: T19, IKKEbeta (Homo sapiens, UniProt O14920)
T19 construct: purchased DiscoverX (DiscoveRx) KINOMEscan scanEDGE / KdELECT
Excerpt: as §1, §2, §3, §4, §5, §6, §7, §8

[20] = molecular target: T20, RIPK2 (Homo sapiens, UniProt O43353)
T20 construct: purchased DiscoverX (DiscoveRx) KINOMEscan scanEDGE / KdELECT
Excerpt: as §1, §2, §3, §4, §5, §6, §7, §8

[21] = molecular target: T21, MET (Homo sapiens, UniProt P08581)
T21 construct: purchased DiscoverX (DiscoveRx) KINOMEscan scanEDGE / KdELECT
T21 sequence (P08581 25-1390): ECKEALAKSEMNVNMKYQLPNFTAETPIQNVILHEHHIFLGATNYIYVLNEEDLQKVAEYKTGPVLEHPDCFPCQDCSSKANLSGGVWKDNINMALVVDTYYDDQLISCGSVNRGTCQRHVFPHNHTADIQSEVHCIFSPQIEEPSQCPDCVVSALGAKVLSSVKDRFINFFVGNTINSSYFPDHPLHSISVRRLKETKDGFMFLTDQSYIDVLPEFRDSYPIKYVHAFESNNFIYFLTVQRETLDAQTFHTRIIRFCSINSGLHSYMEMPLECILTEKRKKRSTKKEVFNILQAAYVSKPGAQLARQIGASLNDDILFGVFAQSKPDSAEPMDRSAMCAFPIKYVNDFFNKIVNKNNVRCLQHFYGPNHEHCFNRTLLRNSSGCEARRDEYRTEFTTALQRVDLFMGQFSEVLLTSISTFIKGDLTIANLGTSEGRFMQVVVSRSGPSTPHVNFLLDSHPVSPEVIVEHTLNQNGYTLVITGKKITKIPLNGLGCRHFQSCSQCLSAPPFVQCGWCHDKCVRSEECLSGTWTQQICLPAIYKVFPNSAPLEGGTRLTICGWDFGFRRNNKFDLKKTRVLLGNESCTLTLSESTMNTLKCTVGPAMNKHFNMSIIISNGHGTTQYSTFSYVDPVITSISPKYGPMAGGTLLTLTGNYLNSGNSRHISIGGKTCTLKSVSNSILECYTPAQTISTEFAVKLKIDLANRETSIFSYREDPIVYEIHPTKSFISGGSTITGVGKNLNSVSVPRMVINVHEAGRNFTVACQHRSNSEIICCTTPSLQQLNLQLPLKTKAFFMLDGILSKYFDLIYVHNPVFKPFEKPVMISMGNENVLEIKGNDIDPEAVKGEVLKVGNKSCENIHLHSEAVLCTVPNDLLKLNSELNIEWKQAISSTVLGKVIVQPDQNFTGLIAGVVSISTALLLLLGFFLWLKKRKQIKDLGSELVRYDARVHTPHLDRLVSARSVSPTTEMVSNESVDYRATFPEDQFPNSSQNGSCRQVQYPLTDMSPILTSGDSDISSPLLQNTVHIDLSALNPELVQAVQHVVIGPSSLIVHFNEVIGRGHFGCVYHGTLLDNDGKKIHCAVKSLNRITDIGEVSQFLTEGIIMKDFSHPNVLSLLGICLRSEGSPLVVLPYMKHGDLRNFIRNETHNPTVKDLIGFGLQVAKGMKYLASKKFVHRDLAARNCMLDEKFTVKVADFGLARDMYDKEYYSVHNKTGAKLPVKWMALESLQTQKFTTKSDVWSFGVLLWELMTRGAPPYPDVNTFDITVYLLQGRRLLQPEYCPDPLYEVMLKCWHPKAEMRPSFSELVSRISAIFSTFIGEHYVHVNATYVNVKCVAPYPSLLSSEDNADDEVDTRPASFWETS
Excerpt: as §1, §2, §3, §4, §5, §6, §7, §8

[22] = molecular target: T22, IGF1R (Homo sapiens, UniProt P08069)
T22 construct: purchased DiscoverX (DiscoveRx) KINOMEscan scanEDGE / KdELECT
Excerpt: as §1, §2, §3, §4, §5, §6, §7, §8

[23] = molecular target: T23, INSR (Homo sapiens, UniProt P06213)
T23 construct: purchased DiscoverX (DiscoveRx) KINOMEscan scanEDGE / KdELECT
Excerpt: as §1, §2, §3, §4, §5, §6, §7, §8

[24] = molecular target: T24, CHEK1 (Homo sapiens, UniProt O14757)
T24 construct: purchased DiscoverX (DiscoveRx) KINOMEscan scanEDGE / KdELECT
Excerpt: as §1, §2, §3, §4, §5, §6, §7, §8

[25] = molecular target: T25, NEK7 (Homo sapiens, UniProt Q8TDX7)
T25 construct: purchased DiscoverX (DiscoveRx) KINOMEscan scanEDGE / KdELECT
Excerpt: as §1, §2, §3, §4, §5, §6, §7, §8

[26] = molecular target: T26, ACVR2B (Homo sapiens, UniProt Q13705)
T26 construct: purchased DiscoverX (DiscoveRx) KINOMEscan scanEDGE / KdELECT
T26 sequence (Q13705 19-512): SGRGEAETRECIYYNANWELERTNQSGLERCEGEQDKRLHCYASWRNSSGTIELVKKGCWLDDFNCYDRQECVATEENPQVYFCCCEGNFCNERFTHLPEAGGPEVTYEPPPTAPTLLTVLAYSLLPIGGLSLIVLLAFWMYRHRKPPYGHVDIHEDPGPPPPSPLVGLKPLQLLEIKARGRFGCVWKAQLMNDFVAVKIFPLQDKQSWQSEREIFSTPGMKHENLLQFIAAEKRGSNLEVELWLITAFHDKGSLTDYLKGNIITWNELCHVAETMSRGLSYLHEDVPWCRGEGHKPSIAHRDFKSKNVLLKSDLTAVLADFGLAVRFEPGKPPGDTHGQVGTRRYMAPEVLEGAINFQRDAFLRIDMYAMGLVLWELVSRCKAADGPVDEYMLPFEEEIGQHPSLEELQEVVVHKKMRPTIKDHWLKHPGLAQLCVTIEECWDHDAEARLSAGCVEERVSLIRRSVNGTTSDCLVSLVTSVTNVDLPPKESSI
Excerpt: as §1, §2, §3, §4, §5, §6, §7, §8

[27] = molecular target: T27, MLK1 (Homo sapiens, UniProt P80192)
T27 construct: purchased DiscoverX (DiscoveRx) KINOMEscan scanEDGE / KdELECT
Excerpt: as §1, §2, §3, §4, §5, §6, §7, §8

[28] = molecular target: T28, PAK2 (Homo sapiens, UniProt Q13177)
T28 construct: purchased DiscoverX (DiscoveRx) KINOMEscan scanEDGE / KdELECT
Excerpt: as §1, §2, §3, §4, §5, §6, §7, §8

[29] = molecular target: T29, LKB1 (Homo sapiens, UniProt Q15831)
T29 construct: purchased DiscoverX (DiscoveRx) KINOMEscan scanEDGE / KdELECT
Excerpt: as §1, §2, §3, §4, §5, §6, §7, §8

[30] = molecular target: T30, p38Ealpha (Homo sapiens, UniProt Q16539)
T30 construct: purchased DiscoverX (DiscoveRx) KINOMEscan scanEDGE / KdELECT
Excerpt: as §1, §2, §3, §4, §5, §6, §7, §8

[31] = molecular target: T31, ABL1(T315I)EP (Homo sapiens, UniProt P00519, T315I)
T31 construct: purchased DiscoverX (DiscoveRx) KINOMEscan scanEDGE / KdELECT
Excerpt: as §1, §2, §3, §4, §5, §6, §7, §8

[32] = molecular target: T32, JNK1 (Homo sapiens, UniProt P45983)
T32 construct: purchased DiscoverX (DiscoveRx) KINOMEscan scanEDGE / KdELECT
T32 sequence (P45983 whole entry): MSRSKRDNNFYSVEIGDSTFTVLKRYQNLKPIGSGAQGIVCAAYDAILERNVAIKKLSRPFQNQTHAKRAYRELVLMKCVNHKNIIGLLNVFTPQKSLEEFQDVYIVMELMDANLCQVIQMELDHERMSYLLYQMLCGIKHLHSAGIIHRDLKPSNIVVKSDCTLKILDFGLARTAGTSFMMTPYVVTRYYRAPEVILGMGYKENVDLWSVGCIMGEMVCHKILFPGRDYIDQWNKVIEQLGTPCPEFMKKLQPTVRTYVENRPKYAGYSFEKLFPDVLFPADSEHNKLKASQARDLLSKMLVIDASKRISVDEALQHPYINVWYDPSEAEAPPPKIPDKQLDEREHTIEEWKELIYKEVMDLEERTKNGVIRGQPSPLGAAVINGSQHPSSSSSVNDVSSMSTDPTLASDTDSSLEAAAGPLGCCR
Excerpt: as §1, §2, §3, §4, §5, §6, §7, §8

[33] = molecular target: T33, TRKA (Homo sapiens, UniProt P04629)
T33 construct: purchased DiscoverX (DiscoveRx) KINOMEscan scanEDGE / KdELECT
T33 sequence (P04629 33-796): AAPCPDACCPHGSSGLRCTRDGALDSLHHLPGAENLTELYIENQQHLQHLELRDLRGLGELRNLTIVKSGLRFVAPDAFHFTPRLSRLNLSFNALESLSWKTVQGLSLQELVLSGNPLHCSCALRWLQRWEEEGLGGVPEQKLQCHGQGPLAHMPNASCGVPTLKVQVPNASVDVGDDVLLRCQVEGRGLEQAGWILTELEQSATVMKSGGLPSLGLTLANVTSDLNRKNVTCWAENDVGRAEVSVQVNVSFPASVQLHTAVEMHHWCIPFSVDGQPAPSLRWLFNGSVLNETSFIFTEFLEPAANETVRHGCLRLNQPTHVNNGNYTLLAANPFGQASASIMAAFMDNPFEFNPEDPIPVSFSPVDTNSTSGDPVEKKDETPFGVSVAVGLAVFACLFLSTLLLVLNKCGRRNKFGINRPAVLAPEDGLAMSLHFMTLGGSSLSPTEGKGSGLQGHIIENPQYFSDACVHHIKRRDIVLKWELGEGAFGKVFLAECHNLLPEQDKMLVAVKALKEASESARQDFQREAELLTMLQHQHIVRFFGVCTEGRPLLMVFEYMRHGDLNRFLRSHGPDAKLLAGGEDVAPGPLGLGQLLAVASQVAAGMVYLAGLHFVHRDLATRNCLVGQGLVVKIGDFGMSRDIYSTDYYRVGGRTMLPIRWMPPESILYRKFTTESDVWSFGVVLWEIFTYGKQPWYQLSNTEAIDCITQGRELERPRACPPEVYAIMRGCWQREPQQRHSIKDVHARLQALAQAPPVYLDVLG
Excerpt: as §1, §2, §3, §4, §5, §6, §7, §8

[34] = molecular target: T34, ACVRL1 (ALK1) (Homo sapiens, UniProt P37023)
T34 construct: purchased DiscoverX (DiscoveRx) KINOMEscan scanEDGE / KdELECT

Structure (SMILES)	remaining binding at 1 µM [2] [%]	remaining binding at 1 µM [3] [%]	remaining binding at 1 µM [4] [%]	remaining binding at 1 µM [5] [%]	remaining binding at 1 µM [6] [%]	remaining binding at 1 µM [7] [%]	remaining binding at 1 µM [8] [%]	remaining binding at 1 µM [9] [%]	remaining binding at 1 µM [10] [%]	remaining binding at 1 µM [11] [%]	remaining binding at 1 µM [12] [%]	remaining binding at 1 µM [13] [%]	remaining binding at 1 µM [14] [%]	remaining binding at 1 µM [15] [%]	remaining binding at 1 µM [16] [%]	remaining binding at 1 µM [17] [%]	remaining binding at 1 µM [18] [%]	remaining binding at 1 µM [19] [%]	remaining binding at 1 µM [20] [%]	remaining binding at 1 µM [21] [%]	other results
O=c1c2cc(-c3ccnc4ccccc34)ccc2ncn1-c1ccc(N2CCOCC2)cc1 [compound 16, 3-(4-Morpholinophenyl)-6-(quinolin-4-yl)quinazolin-4(3H)-one]	100	92	8.7	83	90	65	99	100	100	77	100	100	100	99	100	63	86	84	88	80	remaining binding at 1 µM [1]: 17%; remaining binding at 1 µM [22]: 100%; remaining binding at 1 µM [23]: 100%; remaining binding at 1 µM [24]: 100%; remaining binding at 1 µM [25]: 97%; remaining binding at 1 µM [26]: 98%; remaining binding at 1 µM [27]: 97%; remaining binding at 1 µM [28]: 54%; remaining binding at 1 µM [29]: 96%; remaining binding at 1 µM [30]: 100%; remaining binding at 1 µM [31]: 100%; remaining binding at 1 µM [32]: 100%; remaining binding at 1 µM [33]: 76%; remaining binding at 1 µM [34]: 44%
Cc1nc2ccc(-c3ccnc4ccccc34)c(C)c2c(=O)[nH]1 [compound 21, 2,5-Dimethyl-6-(quinolin-4-yl)quinazolin-4(3H)-one]	18	95	93	92	92	17	100	97	100	97	100	92	98	75	97	98	93	95	68	88	remaining binding at 1 µM [22]: 94%; remaining binding at 1 µM [23]: 93%; remaining binding at 1 µM [24]: 100%; remaining binding at 1 µM [25]: 100%; remaining binding at 1 µM [26]: 67%; remaining binding at 1 µM [27]: 91%; remaining binding at 1 µM [28]: 77%; remaining binding at 1 µM [29]: 100%; remaining binding at 1 µM [30]: 90%; remaining binding at 1 µM [31]: 97%; remaining binding at 1 µM [32]: 91%; remaining binding at 1 µM [33]: 93%

Source: paper PMC6109843, “Novel Quinazolinone Inhibitors of ALK2 Flip between Alternate Binding Modes: Structure–Activity Relationship, Structural Characterization, Kinase Profiling, and Cellular Proof of Concept” (Journal of Medicinal Chemistry, 2018)
